Assays:
[1] = biological target: T1, recombinant human cathepsin E (Homo sapiens, UniProt P14091); assay: Cathepsin E fluorescent substrate kinetic assay; format: biochemical; settings: pH 4.5, substrate MR121-[…]
T1 construct: purchased R&D Systems
T1 sequence (P14091 54-396): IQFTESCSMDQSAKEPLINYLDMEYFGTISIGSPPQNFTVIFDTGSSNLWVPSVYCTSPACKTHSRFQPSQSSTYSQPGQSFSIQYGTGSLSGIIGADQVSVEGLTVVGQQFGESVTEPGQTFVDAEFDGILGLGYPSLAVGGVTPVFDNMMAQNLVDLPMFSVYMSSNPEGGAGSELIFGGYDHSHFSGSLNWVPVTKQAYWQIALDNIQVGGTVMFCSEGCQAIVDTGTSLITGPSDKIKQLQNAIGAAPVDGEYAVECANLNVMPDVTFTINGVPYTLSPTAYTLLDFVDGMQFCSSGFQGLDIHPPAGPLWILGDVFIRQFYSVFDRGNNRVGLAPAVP
Source text: Cathepsin D and Cathepsin E Fluorescent Substrate Kinetic Assays
The MR121 fluorescence assays described below are based on the fact that MR121 forms a non-fluorescent ground state complex with tryptophan. In solution this formation occurs at millimolar concentrations of tryptophan. The mechanism can be used to design a generic biochemical assay for proteases. A substrate peptide is labeled at the N-terminus with tryptophan and at the C-terminus with the fluorophore MR121 (for cathepsin D the 10 amino acid peptide […]-MR121 was used; for cathepsin E, MR121-[…] was used). In absence of protease activity, the substrates remain intact and the MR121 fluorescence is reduced by the high local Trp-concentration. If the substrates are cleaved by the enzymes the MR121 fluorescence is recovered.
The fluorescent substrate cathepsin D and cathepsin E kinetic assays were performed at room temperature in 384-well microtiter plates (black with clear flat bottom, non binding surface plates from Corning) in a final volume of 51 μl. […] The enzymatic reaction was followed in a plate: vision reader (Perkin Elmer) (excitation wavelength: 630 nm; emission: 695 nm) for at least 30 minutes in a kinetic measurement detecting an increase of MR121 fluorescence during the reaction time. […]

[2] = biological target: T2, P-gp (human MDR1) (Homo sapiens, UniProt P08183); assay: p-gp (P-glycoprotein) assay, bidirectional transcellular transport in LLC-PK1 and L-MDR1 cells; format: in vitro ADME; settings: presumably transport efflux ratio (ER)
T2 construct: host or cells: LLC-PK1 (porcine kidney epithelial cell line)
T2 sequence (P08183 whole entry): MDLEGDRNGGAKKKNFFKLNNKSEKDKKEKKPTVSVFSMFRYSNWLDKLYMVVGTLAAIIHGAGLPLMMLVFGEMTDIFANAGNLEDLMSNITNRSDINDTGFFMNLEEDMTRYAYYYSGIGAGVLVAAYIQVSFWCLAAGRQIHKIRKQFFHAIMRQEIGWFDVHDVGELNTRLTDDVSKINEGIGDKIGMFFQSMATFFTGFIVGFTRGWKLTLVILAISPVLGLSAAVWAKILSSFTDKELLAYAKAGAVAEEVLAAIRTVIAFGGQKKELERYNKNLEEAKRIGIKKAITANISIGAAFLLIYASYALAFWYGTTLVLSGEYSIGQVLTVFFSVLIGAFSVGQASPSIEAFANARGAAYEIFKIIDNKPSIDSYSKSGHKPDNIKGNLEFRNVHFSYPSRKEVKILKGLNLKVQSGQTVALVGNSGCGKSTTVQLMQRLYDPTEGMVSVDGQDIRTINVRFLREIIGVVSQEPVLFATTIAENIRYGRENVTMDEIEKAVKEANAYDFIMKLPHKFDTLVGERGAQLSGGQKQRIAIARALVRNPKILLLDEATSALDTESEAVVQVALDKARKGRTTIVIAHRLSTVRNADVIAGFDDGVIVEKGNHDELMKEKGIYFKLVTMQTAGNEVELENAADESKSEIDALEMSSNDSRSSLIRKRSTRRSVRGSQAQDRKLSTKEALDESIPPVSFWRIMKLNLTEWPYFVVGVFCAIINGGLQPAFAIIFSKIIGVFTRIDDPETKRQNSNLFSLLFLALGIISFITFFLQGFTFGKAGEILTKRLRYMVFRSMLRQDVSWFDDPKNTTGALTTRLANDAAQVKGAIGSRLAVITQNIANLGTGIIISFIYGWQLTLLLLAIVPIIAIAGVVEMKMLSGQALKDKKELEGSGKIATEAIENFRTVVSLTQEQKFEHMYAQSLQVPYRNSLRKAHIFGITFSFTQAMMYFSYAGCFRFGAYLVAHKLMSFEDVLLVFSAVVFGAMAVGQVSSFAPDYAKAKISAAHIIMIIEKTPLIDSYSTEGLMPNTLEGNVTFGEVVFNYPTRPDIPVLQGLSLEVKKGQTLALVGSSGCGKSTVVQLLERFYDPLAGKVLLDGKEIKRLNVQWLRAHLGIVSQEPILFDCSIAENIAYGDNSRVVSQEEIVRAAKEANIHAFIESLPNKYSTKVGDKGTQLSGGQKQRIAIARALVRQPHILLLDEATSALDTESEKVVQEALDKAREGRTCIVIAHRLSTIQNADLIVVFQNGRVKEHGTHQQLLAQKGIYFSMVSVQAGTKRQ
Description: p-gp (P-glycoprotein) Assay
Cell Lines and Vesicles Used for Transport Experiments
The LLC-PK1 cell line (ATCC #CL-101) is a porcine kidney epithelial cell line. The MDR1 (Human multidrug resistance protein 1) transfected cell lines were obtained from Dr. A. Schinkel, The Netherlands Cancer Institute (Amsterdam, The Netherlands). All cell lines were cultured on permeable inserts (Costar, 0.33 cm^2 area, pore size 3.0 μm, low density) at 4.5·10^5 cells/cm^2. Transport measurements were performed at day 4 after seeding. Tightness of the cell monolayer was controlled via the permeability of the extracellular marker lucifer yellow (10 μM). […]
The method used for transport experiments was reported Schwab et al. (see above.). […] Concentrations of substrate in both compartments were determined by scintillation counting (digoxin) or by LC-MS/MS. The extracellular marker (lucifer yellow) was quantified using a spectrafluor plus reader at 430/535 nm (Ex/Em). In each experiment 3 different inserts were used for each condition and a mean was calculated. […]
[formula] where Papp, A, C0, and dQ/dt represent the apparent permeability, the filter surface area, the initial concentration, and the amount transported per time period, respectively. Papp values were calculated on the basis of a single time point (2 h). Transport efflux ratios (ER) were calculated as follows: […]

Row | Compound | IC50 [1] [µM] | efflux ratio at 2 h [2]
1 | CC1(c2cccc(-c3cc(Cl)cc(Cl)c3)c2)COCC(N)=N1 (stereo not shown) [Example 32, 5-(3′,5′-Dichloro-biphenyl-3-yl)-5-methyl-5,6-dihydro-2H-[1,4]oxazin-3-ylamine] | 3.8 | 1.1
2 | CC1(c2cc(-c3cncnc3)ccc2F)COCC(N)=N1 (stereo not shown) [Example 36, 5-(2-Fluoro-5-pyrimidin-5-yl-phenyl)-5-methyl-5,6-dihydro-2H-[1,4]oxazin-3-ylamine] | 13 | 11

— patent publication US8399459B2, “1,4 oxazines as BACE1 and/or BACE2 inhibitors” (Hoffmann-La Roche Inc., priority 2011, dated 2013)
